ChEMBL document CHEMBL1201862, “PubChem BioAssay data set” (2004)
“And” between values parts separate entries of the source, which are not always exact repeats. Equal values may be shown once.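 Five compound concentrations were applied to cells in 96-well plates for 48 hours; endpoints were derived by simple linear interpolation of the resulting dose-response curve. At the GI50, growth is halved.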 The source made the active and inactive calls. No stated cut-off is given here; in the data, active = GI50 up to about 1.1 µM and inactive = higher.

Experiments:
Assay in all cases: growth of human tumour cells (NCI), 48 h
[1] = tested on: MOLT-4
[2] = tested on: HCC 2998
[3] = tested on: SK-MEL-2
[4] = tested on: SF-268
[5] = tested on: ACHN
[6] = tested on: RXF 393
[7] = tested on: DU-145
[8] = tested on: PC-3
[9] = tested on: A549
[10] = tested on: HL-60
[11] = tested on: SN12C
[12] = tested on: HT-29
[13] = tested on: RPMI-8226
[14] = tested on: HCT-15
[15] = tested on: EKVX
[16] = tested on: SR
[17] = tested on: SNB-75
[18] = tested on: OVCAR-5
[19] = tested on: IGROV-1
[20] = tested on: LXFL 529

Structure (SMILES) | GI50 [1] | GI50 [2] | GI50 [3] | GI50 [4] | GI50 [5] | GI50 [6] | GI50 [7] | GI50 [8] | GI50 [9] | GI50 [10] | GI50 [11] | GI50 [12] | GI50 [13] | GI50 [14] [µM] | GI50 [15] | GI50 [16] | GI50 [17] | GI50 [18] | GI50 [19] | GI50 [20]
Cc1cn(C2CCC(CO)(CF)O2)c(=O)[nH]c1=O (stereo not given) | > 100 µM (inactive) | > 100 µM (inactive) | > 100 µM (inactive) | > 100 µM (inactive) | > 100 µM (inactive) | > 100 µM (inactive) | > 100 µM (inactive) | > 100 µM (inactive) | > 100 µM (inactive) | > 100 µM (inactive) | > 100 µM (inactive) | > 100 µM (inactive) | > 100 µM (inactive) | > 100 | > 100 µM (inactive) | > 100 µM (inactive) | > 100 µM (inactive) and 96.6 µM (inactive) | > 100 µM (inactive) | > 100 µM (inactive) | 
O[C@H]1[C@H]2c3cc4c(cc3CN3CCC(=C[C@@H]1O)[C@H]23)OCO4 [LYCORINE] | 1.29 µM (inactive) | 2.33 µM (inactive) | 0.376 µM (active) | 0.802 µM (active) | 0.849 µM (active) | 0.3 µM (active) | 1.32 µM (inactive) | 1.45 µM (inactive) | 1.39 µM (inactive) | 2.14 µM (inactive) | 1.7 µM (inactive) | 1.46 µM (inactive) | 2.01 µM (inactive) | 1.33 | 2.39 µM (inactive) | 1.47 µM (inactive) | 3.13 µM (inactive) | 2.5 µM (inactive) | 0.332 µM (active) | 
Cc1ccc2cccc(OC(=O)c3cc4c(cc3Cl)Sc3nccn3S4(=O)=O)c2n1 | 4.55 µM (inactive) | 5.75 µM (inactive) | 11.5 µM (inactive) | 6.98 µM (inactive) | 10.5 µM (inactive) | 5.16 µM (inactive) | 5.83 µM (inactive) | 4.39 µM (inactive) | 11.2 µM (inactive) | < 0.01 µM (active) | 12.8 µM (inactive) | 10 µM (inactive) | 2.33 µM (inactive) | 5.26 | 16.7 µM (inactive) | 3.75 µM (inactive) | 9.66 µM (inactive) | 23.8 µM (inactive) | 6.37 µM (inactive) | 
Cc1c(C#N)c(=O)[nH]c(=O)n1CCN1CCN(C(=O)NCCCCCCNC(=O)N2CCN(CCn3c(C)c(C#N)c(=O)[nH]c3=O)CC2)CC1 | > 100 µM (inactive) | > 100 µM (inactive) |  |  | > 100 µM (inactive) | > 100 µM (inactive) |  |  | > 100 µM (inactive) | > 100 µM (inactive) | > 100 µM (inactive) | > 100 µM (inactive) | > 100 µM (inactive) | > 100 | > 100 µM (inactive) |  | > 100 µM (inactive) |  | > 100 µM (inactive) | > 100 µM (inactive)
CCOC(=O)c1cccc(/N=N/c2nc[nH]c2/C=C/C(=O)OC)c1 | 3.01 µM (inactive) | 11 µM (inactive) | 23.7 µM (inactive) | 8.79 µM (inactive) | 16.5 µM (inactive) | 16.4 µM (inactive) | 37.4 µM (inactive) | 17.8 µM (inactive) | 39.5 µM (inactive) | 3.37 µM (inactive) | 5.97 µM (inactive) | 6.98 µM (inactive) | 9.02 µM (inactive) | 5.13 | 26.5 µM (inactive) | 2.11 µM (inactive) | 18.5 µM (inactive) | 76.6 µM (inactive) | 7.53 µM (inactive) | 
COc1cc(C2c3cc4c(cc3OC(N3CCOCC3)C2C)OCO4)ccc1O (stereo not given) | 6.25 µM (inactive) | 14.9 µM (inactive) | 6.24 µM (inactive) | 35.2 µM (inactive) | 21.2 µM (inactive) | 11.5 µM (inactive) | 28.7 µM (inactive) | 7.28 µM (inactive) | 13.4 µM (inactive) | 3.72 µM (inactive) | 40 µM (inactive) | 23.4 µM (inactive) | 4.22 µM (inactive) | 4.98 | 36.1 µM (inactive) | 5.66 µM (inactive) | 7.64 µM (inactive) | > 76.2 µM (inactive) | 16.4 µM (inactive) | 
C(=C(c1ccc(OC2CCCCO2)cc1)c1ccc(OC2CCCCO2)cc1)c1ccccc1 (stereo not given) | 0.392 µM (active) | 0.723 µM (active) | 1.4 µM (inactive) | 1.09 µM (active) | 1.06 µM (active) | 1.03 µM (active) | 0.838 µM (active) | 0.469 µM (active) | 0.522 µM (active) | 0.233 µM (active) | 1.02 µM (active) | 0.386 µM (active) | 0.294 µM (active) | 0.8 | 0.456 µM (active) | 0.371 µM (active) | 0.605 µM (active) | 1.06 µM (active) | 0.524 µM (active) | 
COc1ccccc1NC(=O)C1=C(C)NC(C)=C(C(=O)Nc2ccccc2OC)C1c1ccc(C)cc1 |  | 97.5 µM (inactive) | 48.2 µM (inactive) | > 100 µM (inactive) | 17.3 µM (inactive) | 35 µM (inactive) |  |  |  |  | > 100 µM (inactive) | > 100 µM (inactive) | 37.8 µM (inactive) | 33.1 | 47.6 µM (inactive) |  | 58.5 µM (inactive) | 70.3 µM (inactive) | 58.7 µM (inactive) | 74.1 µM (inactive)
CCCCNC(=S)Nn1c(-c2ccccc2)nc2ccccc2c1=O | 49.9 µM (inactive) |  | > 100 µM (inactive) | > 100 µM (inactive) | > 100 µM (inactive) | 24 µM (inactive) |  |  | > 100 µM (inactive) | 25.7 µM (inactive) | > 100 µM (inactive) | 68.5 µM (inactive) | > 100 µM (inactive) | > 100 |  |  | 41.7 µM (inactive) | > 100 µM (inactive) | > 100 µM (inactive) | > 100 µM (inactive)
Nc1cccc2nsnc12 | 12.9 µM (inactive) | > 84.3 µM (inactive) | > 100 µM (inactive) | > 86.3 µM (inactive) | > 95.7 µM (inactive) | > 100 µM (inactive) | > 100 µM (inactive) | > 100 µM (inactive) | > 100 µM (inactive) | 3.31 µM (inactive) | > 100 µM (inactive) | > 100 µM (inactive) | 17.8 µM (inactive) | > 76.7 | > 91.8 µM (inactive) | 4.2 µM (inactive) | 53.8 µM (inactive) | > 100 µM (inactive) | > 100 µM (inactive) | 
NC(=O)C(=O)C1CCC2=C(Sc3ccccc3N2)C1=O (stereo not given) | > 100 µM (inactive) | > 100 µM (inactive) | > 100 µM (inactive) | > 100 µM (inactive) | > 100 µM (inactive) | > 100 µM (inactive) |  |  | > 100 µM (inactive) | > 100 µM (inactive) |  |  | > 100 µM (inactive) | > 100 | > 100 µM (inactive) |  | > 100 µM (inactive) | > 100 µM (inactive) | > 100 µM (inactive) | > 100 µM (inactive)
C=CC(=O)N1C/C(=C\c2ccc(Cl)cc2)C(=O)/C(=C/c2ccc(Cl)cc2)C1 | 0.3 µM (active) | 0.296 µM (active) | 1.32 µM (inactive) | 0.221 µM (active) | 0.286 µM (active) | 0.275 µM (active) | 0.813 µM (active) | 0.255 µM (active) | 0.356 µM (active) | 0.484 µM (active) | 0.313 µM (active) | 0.0989 µM (active) | 0.0263 µM (active) | 0.182 | 0.885 µM (active) | 0.05 µM (active) | 0.405 µM (active) | 0.641 µM (active) | 0.353 µM (active) | 
